Results reported in patent publication EP1506969B1, “Compounds with growth hormone releasing properties” (Helsinn Therapeutics (U.S.), Inc., priority 1998, dated 2010).
Square brackets hold non-standard residues; d marks the D form. Peptide text beside a SMILES is read from it. d2Nal = N[C@H](Cc1ccc2ccccc2c1)C(=O)O

What was measured:
[1] = test system: carboxypeptidase Y and B; test: Metabolic stability in carboxypeptidase mix (ESMS, selected ion monitoring); conditions: stability: decrease in SIM signal after 24 h in degradation solution; carboxypeptidase Y and B in 50 mM ammoniumacetate pH 4.5, 37°C
Description: Compounds of formula I may be evaluated for their metabolic stability using the procedure described below:
(§1) Compounds is dissolved at a concentration of 1 mg/ml in water. 25 ml of this solution is added to 175 ml of the respective enzyme-solution (resulting in an enzyme:substrate ratio (w/w) of approximately 1:5). The solution is left at 37°C overnight. 10 ml of the various degradation solutions is analyzed against a corresponding zero-sample using flow injection electrospray mass spectrometry (ESMS) with selected ion monitoring of the molecular ion. If the signal has decreased more than 20% compared to the zero-sample, the remainder of the solution is analyzed by HPLC and mass spectrometry in order to identify the extent and site(s) of degradation precisely.
(§2) Enzymes (trypsin, chymotrypsin, elastase aminopeptidase M and carboxypeptidase Y and B) were all purchased from Boehringer Mannheim GmbH (Mannheim, Germany)
Carboxypeptidase mix: carboxypeptidase Y and B in 50 mM ammoniumacetate pH 4.5 (all concentrations 0.025 mg/ml).
(§3) Mass spectrometric analysis was performed using two different mass spectrometers. […]
(§4) Quantification of the compounds (before and after degradation) was done on the API III instrument using single ion monitoring of the molecular ion in question with flow injection of the analyte. […]

[2] = test system: trypsin, chymotrypsin and elastase; test: Metabolic stability in pancreatic enzyme mix (ESMS, selected ion monitoring); conditions: stability: decrease in SIM signal after 24 h in degradation solution, chymotrypsin and elastase in 100 mM ammoniumbicarbonate pH 8.0, 37°C
Description: as §1, §2
Pancreatic enzyme mix: trypsin, chymotrypsin and elastase in 100 mM ammoniumbicarbonate pH 8.0 (all concentrations 0.025 mg/ml).
as §3, §4

Row | Structure (SMILES) | Carboxy-peptidase mix [1] | Pan. enzyme mix [2]
1 | C[C@H](NC(=O)[C@@H](Cc1ccc2ccccc2c1)NC(=O)[C@@H](C)N)C(=O)N[C@@H](Cc1c[nH]c2ccccc12)C(=O)N[C@H](Cc1ccccc1)C(=O)N[C@@H](CCCCN)C(N)=O [GHRP-2] (H-[dA][d2Nal]AW[dF]K-NH2) | - (Unstable (more than 20% decrease in SIM signal after 24 h in degradation solution)) | - (Unstable (more than 20% decrease in SIM signal after 24 h in degradation solution))
2 | C[C@H](NC(=O)[C@@H](Cc1c[nH]c2ccccc12)NC(=O)[C@@H](N)Cc1c[nH]cn1)C(=O)N[C@@H](Cc1c[nH]c2ccccc12)C(=O)N[C@H](Cc1ccccc1)C(=O)N[C@@H](CCCCN)C(N)=O [GHRP-6] (H-H[dW]AW[dF]K-NH2) | - (Unstable (more than 20% decrease in SIM signal after 24 h in degradation solution)) | - (Unstable (more than 20% decrease in SIM signal after 24 h in degradation solution))
